Assay results from article PMC6770581, “New Thalidomide-Resembling Dicarboximides Target ABC50 Protein and Show Antileukemic and Immunomodulatory Activities” (Biomolecules, 2019).

How the values were obtained:
IKZF1 and IKZF3 = IKZF1 and IKZF3 level by immunoblotting in K562 cells; assay type: cell-based, human; details: K562, 48 h, 3 (1 µM), 5 (1 µM), 6 (1 µM)
Experimental: K562 or MOLT4 cells were seeded on 6-well plate (2 × 10^6 cells/well) in a RPMI 1640 medium containing 10% FBS. MOLT4 cells were exposed to 1% DMSO (vehicle control), test compounds 6 (2 µM), 3 (5 µM), 5 (10 µM). Similarly, K562 cells were exposed to 1% DMSO, test compounds 6 (1 µM), 3 (1 µM), 5 (1 µM) for 48 h. Cells treated with 100 µM thalidomide or 10 µM lenalidomide served as positive controls. After incubation, cells were centrifuged (600 rpm, 6 min, 24 °C), washed once with PBS and lysed in 20 mM Tris (pH 7.2) containing 1% Triton X-100 supplemented with Complete® protease inhibitors cocktail (Roche). The levels of IKZF1 and IKZF3 were assessed by immunoblotting (IB).
Cells were lysed in TBS buffer containing 1% Triton X-100 and Complete® protease inhibitor cocktail (Roche) for 15 min on ice with occasional vortexing. Insoluble material was centrifuged (12,000 rpm, 15 min, 4 °C) and supernatants were collected. Total protein concentration was measured with DC Protein Assay (Bio-Rad, Hercules, CA, USA). Cell lysates containing 30 µg of total protein were mixed with Laemli buffer supplemented with SDS and β-mercaptoethanol, denatured (10 min, 95 °C) and subjected to sodium dodecyl sulfate polyacrylamide gel electrophoresis (SDS-PAGE) electrophoresis (4% stacking and 10% resolving gels). Resolved proteins were electrotransferred (semi-dry, 90 min, 1.5 mA/cm^2) to a 0.45 µm nitrocellulose membrane (Thermo Scientific, Waltham, MA, USA). Membranes were blocked for 2 hours in TBST buffer (20 mM Tris-HCl pH 7.5, 0.9% NaCl, 0.1% Tween 20) containing 5% BSA (BioShop, Burlington, ON, Canada) and probed with primary antibodies (overnight at 4 °C) diluted in TBST buffer with 0.5% BSA. Tubulin served as a loading control for IB experiments. Anti IKZF3 (rabbit monoclonal, dilution 1:500), anti IKZF1 (rabbit polyclonal, dilution 1:500) were from Abcam. Anti IRF4 (rabbit polyclonal, dilution 1:500) were from Cell Signaling Technology. […] Protein bands intensities were analysed using Image Quant (version 5.0, GE Healthcare Life Sciences, Pittsburgh, PA, USA).

[1] = system: HUVEC (human umbilical vein endothelial cells); details: 48 h, MTT, mean ± SD; cited from earlier work
K562 cells [2] = details: 48 h, MTT, mean ± SD; cited from earlier work
HeLa cells = details: 48 h, MTT, mean ± SD; cited from earlier work
MOLT-4 cells = assay: Annexin V/PI flow cytometry of apoptosis, MOLT-4; assay type: cell-based, human; details: MOLT-4, 3 h, 5× IC50 (3 45 µM, 6 20 µM, 5 100 µM)
Experimental: (§1) The phosphatidylserine on the extracellular side of cell membranes was quantified using an FITC Annexin V Apoptosis Detection Kit I (BD Pharmingen, San Diego, CA, USA) according to the manufacturer’s instruction. 10^6 cells were seeded on a 6-well plate (Nunc). […] The control cells were exposed to 1% DMSO or 1μM staurosporine. After treatment the cells were centrifuged at 700 rpm (120× g) for 5 min, washed twice with cold PBS and then resuspended in 1x binding buffer to a density of 10^6 cells/ml. 100 µL of the resuspended cells was stained in the dark with 5 μl of Annexin V-fluoroscein isothiocyanate (FITC) solution and 10 µL propidium iodide (PI) solution for 15 min at room temperature. The samples were then diluted with 400 μL of a binding buffer and within 1 h analyzed with a flow cytometer (BD FACSCalibur^TM, BD Biosciences, San Jose, CA, USA). After treatment, four populations of cells were assessed: (1) viable (neither apoptotic nor necrotic, Annexin V-FITC and PI negative), (2) apoptotic (Annexin V-FITC positive and PI negative), (3) late apoptotic (Annexin V-FITC and PI positive), and (4) necrotic (Annexin V-FITC negative and PI positive).

HL-60 cells = details: 48 h, MTT, mean ± SD; cited from earlier work
K562 cells [3] = assay: Annexin V/PI or 7-AAD flow cytometry of apoptosis, K562; assay type: cell-based, human; details: K562, 5× IC50 (3 10 µM, 6 5 µM, 5 5 µM), staurosporine 1 µM; different incubation times for 3, 6 and 5
Experimental: as §1
0.15 × 10^6 cells/ml were seeded on a 6-well plate (Nunclon, Thermo Fisher Scientific, Waltham, MA, USA). Following 24 h preincubation the cells were treated with either the compound or 1% DMSO (control) for 24 or 48 h. After indicated time, the cells were washed with cold PBS (w/o Mg^2+, Ca^2+), stained with Annexin V (FITC Annexin V Apoptosis Detection Kit with 7-aminoactinomycin D (7-AAD), Biolegend, San Diego, CA, USA) according to manufacturer instructions and analysed using BD FACSCalibur flow cytometer. Obtained Flow Cytometry Standard files were analyzed using BD FACSDiva Software (FACSDiva Version 6.1.3, Becton Dickinson Biosciences, San Jose, CA, USA). The experiment was performed three times in at least two technical replicates.

SMILES | level of IKZF1 and IKZF3 (immunoblotting) (IKZF1 and IKZF3) | IC50 [1] [nM] | IC50 (K562 cells [2]) [nM] | IC50 (HeLa cells) [nM] | apoptotic cells (MOLT-4 cells) | IC50 (HL-60 cells) [nM] | apoptotic cells, early (LR) and late (UR) (K562 cells [3])
CCC12C(=O)C(CC)(C(c3ccccc3)=C1c1ccccc1)C1C(=O)N(CC(O)CNC(C)C)C(=O)C12 (stereo not drawn) [Compound 5] | significant diminution | > 100000 | 1000 ± 50 | > 100000 | ~78% | 2000 ± 50 | more than 90%
CCC12C(=O)C(CC)(C(c3ccccc3)=C1c1ccccc1)C1C(=O)N(CCN3CCCCC3)C(=O)C12 (stereo not drawn) [Compound 3] | modest reduction | > 100000 | 2000 ± 310 | > 100000 | about 76% | > 100000 | about 44%
CN(C)CCN1C(=O)C2C(C1=O)C1(c3ccccc3)CC2(c2ccccc2)C(c2ccccc2)=C1c1ccccc1 (stereo not drawn) [Compound 6] | significant diminution | > 100000 | 1000 ± 300 | 1000 ± 200 | ~99% | 5000 ± 240 | more than 90%
